Patent US20220387457A1 (Qlaris Bio, Inc., priority 2020, published 2022)

How the values were obtained:
[1] = target: T1, human Kir6.2/SUR2B KATP channel (Homo sapiens, UniProt O60706); assay: FLIPR membrane potential assay in HEK-Kir6.2/SUR2B cells; assay type: cell-based
T1 construct: expressed in transfected cells
Protocol: The ability of CKLP1 and the active moiety of CKLP1, leveromakalim, to pharmacologically modulate the function of the human ATP-sensitive potassium channel comprised of Kir6.2 (encoded by the human gene KCNJ11) coupled to the sulfonylurea receptor SUR2B (encoded by the human gene ABCC9) was studied.
Compounds were dissolved up to 10 mM stock solution in DMSO. Ten-point concentration response curves were generated at 100× concentration in 100% DMSO. Compound source plates were made by serially diluting 10 mM compound stocks in DMSO to generate a progressive semilog dilution schema. Dose response stock plate (10 μL) were then transferred into assay plates containing 90 μL of assay buffer, generating 10× working concentrations. Final assay test concentration ranges of 100 μM to 0.003 μM with a final DMSO concentration of 1.0%.
Human embryonic kidney (HEK) cells stably expressing human Kir6.2/SUR2B KATP channel subunits were plated onto 96 well, black poly-d-lysine (PDL)-coated microplates and maintained in growth media the day prior to use for experiments. Media was removed from the plates and 90 μL of 1× stock of the membrane potential sensitive fluorescent dye FMP-Blue resuspended in assay buffer (EBSS—in mM: NaCl 145, KCl 2, Glucose 5, CaCl2) 1.8, MgCl2 0.8, HEPES 10, pH 7.4 with NaOH, 290-300 mOSm) was added to the cells. Cells were incubated at room temperature, protected from light, for 45-60 minutes. After the incubation period, cell, test compound and glibenclamide plates were loaded onto the fluorescence plate reader (FLIPR-TETRA™) and the scanning initiated. The FLIPR measured a 10 second baseline and then added 10 μL of 10× the final desired concentration of test agent. Changes in fluorescence were monitored for an additional 5 minutes. After the 5-minute compound incubation, 10 μL of the receptor inhibitor glibenclamide was added to the cell plate (10 uM final glibenclamide concentration). Changes in fluorescence was then monitored for an additional 5 minutes.
Compound modulation of Kir6.2/SUR2B KATP channel mediated changes in cellular membrane potential was determined as follows. After the administration of compound, FMP fluorescence was monitored for a 5-minute period. The following parameters were recorded and exported from the FLIPR: the average relative fluorescence response (RFU) of 5 images taken at the 5-minute point in the assay with the average background EBSS buffer response subtracted. […] Test agent effect was calculated as % activation using the following formula: […]
Curve fits were performed in GraphPad Prism graphing software using a 4-parameter, variable slope fit equation.

[2] = Plasma pharmacokinetics of CKLP1 and levcromakalim after topical dosing in hound dogs; assay type: in vivo, hound dog
Protocol: To assess the pharmacokinetic parameters, hound dogs (n=3) were treated with 50 μL topical ocular administration of 10 mM CKLP1 or vehicle (PBS) (n=2) in both eyes, once daily for eight days. Blood (approximately 3 mL) was collected in heparin blood collection tubes at eight different time points (5 minutes, 15 minutes, 30 minutes, 60 minutes, 2 hours, 4 hours, 8 hours and 24 hours) following treatment on days 1, 4 and 8. Plasma was separated from the blood by centrifugation at 2000 rpm for 5 minutes.
Immediately prior to analysis, tissues were thawed and their weight was measured. PBS was added at double the tissue volume homogenized in a rotor stator homogenizer for 30 seconds. […] Detection was accomplished using positive electrospray ionization with multiple-reaction monitoring (MRM). […] Data were acquired and analyzed using Waters MassLynx v4.1 software.

[3] = Plasma pharmacokinetics, 28-day topical ophthalmic dosing in beagle dogs; conditions: beagle, dog, in vivo
Protocol: In the study, dogs (3 males and 3 females) received bilateral daily topical administration of 40 μL/eye of 2.0%, 4.0%, or 8.0% as measured in mg/mL (equivalent to 0.8, 1.6, or 3.2 mg CKLP1 per eye) of CKLP1 in phosphate buffered saline. Based on an average male dog weight of 7.9 kg at the start of the study, these doses were equivalent to 0.20 mg/kg, 0.41 mg/kg, or 0.81 mg/kg and based on an average female dog weight of 6.0 kg at the start of the study, these doses were equivalent to 0.27 mg/kg, 0.53 mg/kg, or 1.07 mg/kg. Blood was collected for toxicokinetic analysis pre-dose and at 1, 2, 4, 8, 12, and 24 hours post dosing on days 1 and 28. In addition, 2 animals of each gender were allowed 336 hours (14 days) of recovery time following the final dose, at which point final blood samples were obtained.

[4] = hound, dog, plasma, topical or ocular, 10 mM CKLP1, 50 µL in each of both eyes, levcromakalim after topical 10 mM CKLP1 once daily, Day 1
[5] = hound, dog, plasma, topical or ocular, 10 mM CKLP1, 50 µL in each of both eyes, levcromakalim after topical 10 mM CKLP1 once daily, Day 4
[6] = hound, dog, plasma, topical or ocular, 10 mM CKLP1, 50 µL in each of both eyes, levcromakalim after topical 10 mM CKLP1 once daily, Day 8
[7] = levcromakalim after topical 10 mM CKLP1 once daily, Day 1
[8] = levcromakalim after topical 10 mM CKLP1 once daily, Day 4
[9] = levcromakalim after topical 10 mM CKLP1 once daily, Day 8
[10] = female, topical or ocular, 3.2 mg
[11] = male, topical or ocular, 1.6 mg

T1 sequence (O60706 1-1549 isoform O60706-2): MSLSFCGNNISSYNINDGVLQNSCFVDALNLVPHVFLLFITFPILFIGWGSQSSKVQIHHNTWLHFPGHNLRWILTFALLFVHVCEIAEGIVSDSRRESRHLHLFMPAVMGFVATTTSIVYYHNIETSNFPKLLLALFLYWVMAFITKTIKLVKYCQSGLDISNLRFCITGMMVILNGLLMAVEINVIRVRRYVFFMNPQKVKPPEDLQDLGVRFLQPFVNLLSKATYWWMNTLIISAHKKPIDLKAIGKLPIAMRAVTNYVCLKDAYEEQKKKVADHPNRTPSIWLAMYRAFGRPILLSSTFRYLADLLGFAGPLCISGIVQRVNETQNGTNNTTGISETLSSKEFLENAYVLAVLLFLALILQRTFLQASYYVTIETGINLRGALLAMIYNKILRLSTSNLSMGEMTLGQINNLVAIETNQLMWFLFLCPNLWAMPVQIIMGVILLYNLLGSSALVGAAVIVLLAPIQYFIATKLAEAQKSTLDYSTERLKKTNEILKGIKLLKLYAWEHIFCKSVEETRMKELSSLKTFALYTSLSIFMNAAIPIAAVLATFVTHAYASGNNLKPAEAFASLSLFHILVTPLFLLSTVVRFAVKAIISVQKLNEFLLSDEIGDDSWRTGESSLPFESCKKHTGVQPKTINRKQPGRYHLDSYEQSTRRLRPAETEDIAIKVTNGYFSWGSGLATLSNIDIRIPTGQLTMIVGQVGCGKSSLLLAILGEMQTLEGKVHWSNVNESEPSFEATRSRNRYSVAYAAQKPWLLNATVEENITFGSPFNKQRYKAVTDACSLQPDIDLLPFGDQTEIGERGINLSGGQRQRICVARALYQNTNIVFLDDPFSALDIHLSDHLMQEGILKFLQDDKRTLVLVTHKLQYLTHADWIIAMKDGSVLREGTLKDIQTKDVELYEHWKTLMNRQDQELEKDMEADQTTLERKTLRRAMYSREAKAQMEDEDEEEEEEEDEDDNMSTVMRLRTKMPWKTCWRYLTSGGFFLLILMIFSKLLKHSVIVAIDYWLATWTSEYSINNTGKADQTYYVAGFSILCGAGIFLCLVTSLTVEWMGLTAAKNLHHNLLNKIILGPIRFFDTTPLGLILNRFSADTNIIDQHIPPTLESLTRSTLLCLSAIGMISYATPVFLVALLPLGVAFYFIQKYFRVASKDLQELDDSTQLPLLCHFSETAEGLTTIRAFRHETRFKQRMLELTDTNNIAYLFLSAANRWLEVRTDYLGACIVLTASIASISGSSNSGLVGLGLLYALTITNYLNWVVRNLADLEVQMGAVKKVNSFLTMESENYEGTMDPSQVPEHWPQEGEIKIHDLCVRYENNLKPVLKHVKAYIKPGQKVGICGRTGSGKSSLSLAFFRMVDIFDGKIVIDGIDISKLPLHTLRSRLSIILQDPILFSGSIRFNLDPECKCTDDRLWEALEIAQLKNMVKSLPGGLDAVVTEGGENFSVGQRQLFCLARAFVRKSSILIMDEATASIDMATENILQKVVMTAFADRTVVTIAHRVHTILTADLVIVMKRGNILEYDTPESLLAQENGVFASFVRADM
T1 sequence (Q14654 whole entry partner): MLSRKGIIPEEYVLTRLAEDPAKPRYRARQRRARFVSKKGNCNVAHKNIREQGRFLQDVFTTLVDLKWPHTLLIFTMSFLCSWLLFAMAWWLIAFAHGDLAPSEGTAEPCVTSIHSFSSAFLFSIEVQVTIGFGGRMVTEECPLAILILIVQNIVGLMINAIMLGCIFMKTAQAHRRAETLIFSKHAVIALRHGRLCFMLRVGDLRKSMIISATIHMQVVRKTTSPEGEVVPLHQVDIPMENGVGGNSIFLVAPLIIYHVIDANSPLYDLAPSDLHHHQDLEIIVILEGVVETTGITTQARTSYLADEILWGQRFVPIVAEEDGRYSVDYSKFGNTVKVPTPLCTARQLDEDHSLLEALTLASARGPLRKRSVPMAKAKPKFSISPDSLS

CC1(C)Oc2ccc(C#N)cc2[C@@H](N2CCCC2=O)[C@@H]1O [Levcromakalim, levcromakalim, reference compound]
hyperpolarization reversed by coadministration of glibenclamide ([1]; glibenclamide 10 μM): reversed | hyperpolarization / activation of Kir6.2/SUR2B KATP channels ([1]; up to 100 μM): concentration-dependent hyperpolarization | Maximum concentration of levcromakalim in plasma ([2]; after topical 10 mM CKLP1): 1.2 ± 0.2 ng/mL | concentration of levcromakalim found in plasma ([2]; after topical CKLP1): 1 ng/mL | AUC ([2]; hound, dog, plasma, topical or ocular, 10 mM): 3.88 ng·h/mL | AUC(0-t) [2, 4]: 5.09 ng·h/mL | Cmax [2, 4]: 1.3 ng/mL | Tmax ([2]; hound, dog, plasma, topical or ocular, 10 mM CKLP1, 50 µL in each of both eyes, levcromakalim after topical 10 mM CKLP1 once daily, Day 1, read-out: Tmax (converted)): 2 h | AUC(0-t) [2, 5]: 6.3 ng·h/mL | Cmax [2, 5]: 1.4 ng/mL | Tmax ([2]; hound, dog, plasma, topical or ocular, 10 mM CKLP1, 50 µL in each of both eyes, levcromakalim after topical 10 mM CKLP1 once daily, Day 4, read-out: Tmax (converted)): 2 h | AUC(0-t) [2, 6]: 2.67 ng·h/mL | Cmax [2, 6]: 1 ng/mL | Tmax ([2]; hound, dog, plasma, topical or ocular, 10 mM CKLP1, 50 µL in each of both eyes, levcromakalim after topical 10 mM CKLP1 once daily, Day 8, read-out: Tmax (converted)): 2 h | half-life ([2]; hound, dog, plasma, topical or ocular, 10 mM, levcromakalim after topical 10 mM CKLP1 once daily, Day 1): 1.24 h | half-life ([2]; hound, dog, plasma, topical or ocular, 10 mM, levcromakalim after topical 10 mM CKLP1 once daily, Day 4): 1.46 h | half-life ([2]; hound, dog, plasma, topical or ocular, 10 mM, levcromakalim after topical 10 mM CKLP1 once daily, Day 8): 2.11 h | Tmax ([2]; hound, dog, plasma, topical or ocular, 10 mM, time of maximum concentration (Tmax) of levcromakalim, after topical 10 mM CKLP1): ~2 h | half-life ([2]; hound, dog, plasma, topical, 10 mM, as stated in the summary): 2 h | Clast [2, 7]: 0.1 ng/mL | Tlast [2, 7]: 480 min | Clast [2, 8]: 0.1 ng/mL | Tlast [2, 8]: 480 min | Clast [2, 9]: 0.5 ng/mL | Tlast [2, 9]: 240 min | half-life ([3]; mean T1/2 of levcromakalim): 2.06 to 4.9 h | half-life ([3]; terminal elimination half-life): 2 to 5 h | concentration at 336 h ([3]; both sexes): < 0.499 ng/mL | AUC(0-inf) ([3]; female, topical or ocular, 0.27 mg/kg): 96.8 ng·h/mL | AUC(0-inf) [3, 10]: 304 ng·h/mL | t1/2 [3, 10]: 2.73 h | half-life ([3]; female, topical or ocular, 3.2 mg, t1/2): 4.9 h | AUC(0-inf) ([3]; female, topical or ocular, […]): 131 ng·h/mL | AUC(0-inf) ([3]; male, topical or ocular): 111 ng·h/mL | AUC(0-inf) [3, 11]: 185 ng·h/mL | Tmax [3, 11]: 4 h | AUC(0-inf) ([3]; male, topical or ocular, 3.2 mg): 371 ng·h/mL
